US20250000843A1, “LIGNAN-INSPIRED COMPOUNDS, METHODS OF MAKING, AND USING THEREOF” (IOWAIBO, INC., priority 2023, published 2025)

What was measured:
[1] = tested on: MCF7 (human breast cancer cell line); assay: MTT toxicity assay in MCF7 breast cancer cells; type: cell-based
Method: Toxicity of the dibenzyl butyl lactone derivative (3-[(3,4-dimethoxyphenyl)cyclopentyl], 4-[(3-hydroxyphenol)methyl]oxolan-2-one) in breast cancer cells was evaluated using MTT assay. The MTT toxicity test is a colorimetric assay to measure cells' metabolic activity by serving as a substrate of cellular enzymes that reduce the tetrazolium orange dye, MTT (3-(4,5-Dimethylthiazol-2-yl)-2,5-diphenyltetrazolium bromide) to its insoluble, formazan, giving a purple color. The rate of conversion is directly proportional to cells' mitochondrial metabolic activity via NAD (P) H-dependent cellular oxidoreductase enzymes and serves as a surrogate marker of cell viability.
Cultures of MCF7 (human breast cancer cell line) working stock (5 passages) were established under standard culture conditions in Eagle's minimum essential medium (EMEM). EMEM was supplemented with 10% fetal bovine serum (FBS), 2 mM Glutamine and Pen/Strep, and Penicillin 0.01 mg/ml.
Cells previously expanded were seeded in 96 well plates at 1.9×10^5 and 9.6×10^4 cells/plate for 24- and 72-hours treatment respectively. This concentration is known to show the best window for the MTT assay, with better sensitivity and low variability.
5 mg of powdered enterolactone, dibenzyl butyl lactone derivative enantiomer A, and dibenzyl butyl lactone derivative enantiomer B were dissolved in 500 μl of DMSO at room temperature. Eight-point curves, ⅓ dilutions (highest concentration 125 μM), were prepared.
Twenty-four hours following the seeding process, the cells were washed once with phosphate buffered saline (PBS) and treated with the respective compounds in cell culture media. Each condition was tested in triplicates. For positive and negative controls, 8 mM methyl methane sulfonate (MMS) and DMSO 100% were used respectively.
Following compound addition, the plates were incubated for 24 and 72 hours. After the treatment period, cells were washed twice with PBS and media was replaced with MTT reagent at 0.5 mg/ml in Dulbecco's modified Eagle medium (DMEM) without phenol red. The plates were gently shaken and incubated for 4 hours. After the incubation the medium was removed and replaced by DMSO. The plates were gently shaken to solubilize the formazan crystals. Absorbance was measured using an Envision multiplate reader at a wavelength of 570 nm.
Eight serial dilutions were prepared (125.00, 41.67, 13.89, 4.63, 1.54, 0.51, 0.17 and 0.06 µM to evaluate the compounds (in triplicate). MTT results showing cell death values above 20% are considered as having a significant toxic effect.
MTT assay results are shown in Tables 2-7 and expressed as the percentage of cell death after treatment.

[2] = tested on: human induced pluripotent stem (iPS) cells; type: cell-based
Method: The dibenzyl butyl lactone derivative enantiomer A and B were compared to enterolactone and tested to determine toxicity using a human pluripotent stem (hPS) cell-based assay that predicts the developmental toxicity potential. […] The current study was conducted using human induced pluripotent stem (iPS) cells.
The impact of test article exposure on ornithine and cystine metabolism in human induced pluripotent stem (iPS) cells was measured for three test articles (dibenzyl butyl lactone derivative enantiomer A, dibenzyl butyl lactone derivative enantiomer B, and enterolactone) and prediction of the potential for developmental toxicity was made through application of the hPS cell-based assay. Exposure spanned a range of eight treatment levels per test article ranging from 0.03-100 μM.
The observed decrease in the o/c ratio following exposure to each test article is indicative of the potential for developmental toxicity and/or embryo lethality in vivo at or above the dTP concentration. FIGS. 15A-C show the o/c ratio of dibenzyl butyl lactone derivative enantiomer A (FIG. 15A), dibenzyl butyl lactone derivative enantiomer B (FIG. 15B), and (+/−) enterolactone (FIG. 15C). The graphs in FIGS. 15A-C show the cell viability and o/c/ ratio over concentrations of 0.03-100 μM with the straight horizontal line illustrating the developmental toxicity threshold of 0.85.

## O=C1OC[C@H](Cc2cccc(O)c2)[C@H]1Cc1cccc(O)c1 (racemic) [Enterolactone, reference compound]
[1]; MCF7, 24 hours, 0.06 μM
  Cell death #1 (%): −11.97%
  Cell death #2 (%): −41.20%
  Cell death #3 (%): −33.13%
  Cell death (%) MEAN: −28.77%
[1]; MCF7, 24 hours, 0.17 μM
  Cell death #1 (%): −14.66%
  Cell death #2 (%): −12.36%
  Cell death #3 (%): −5.43%
  Cell death (%) MEAN: −10.82%
[1]; MCF7, 24 hours, 0.51 μM
  Cell death #1 (%): 2.26%
  Cell death #2 (%): −23.51%
  Cell death #3 (%): −19.28%
  Cell death (%) MEAN: −13.51%
[1]; MCF7, 24 hours, 1.54 μM
  Cell death #1 (%): −16.20%
  Cell death #2 (%): −16.97%
  Cell death #3 (%): −21.20%
  Cell death (%) MEAN: −18.13%
[1]; MCF7, 24 hours, 4.63 μM
  Cell death #1 (%): −5.05%
  Cell death #2 (%): −19.28%
  Cell death #3 (%): −25.82%
  Cell death (%) MEAN: −16.71%
[1]; MCF7, 24 hours, 13.89 μM
  Cell death #1 (%): −10.05%
  Cell death #2 (%): −8.13%
  Cell death #3 (%): −3.51%
  Cell death (%) MEAN: −7.23%
[1]; MCF7, 24 hours, 41.67 μM
  Cell death #1 (%): −30.05%
  Cell death #2 (%): −30.43%
  Cell death #3 (%): −40.43%
  Cell death (%) MEAN: −33.64%
[1]; MCF7, 24 hours, 125.00 μM
  Cell death #1 (%): −13.51%
  Cell death #2 (%): −8.13%
  Cell death #3 (%): 7.64%
  Cell death (%) MEAN: −4.66%
[1]; MCF7, 72 hours, 0.06 μM
  Cell death #1 (%): −30.40%
  Cell death #2 (%): −23.70%
  Cell death #3 (%): −42.46%
  Cell death (%) MEAN: −32.19%
[1]; MCF7, 72 hours, 0.17 μM
  Cell death #1 (%): −67.59%
  Cell death #2 (%): −62.23%
  Cell death #3 (%): −65.91%
  Cell death (%) MEAN: −65.24%
[1]; MCF7, 72 hours, 0.51 μM
  Cell death #1 (%): −66.25%
  Cell death #2 (%): −61.22%
  Cell death #3 (%): −61.89%
  Cell death (%) MEAN: −63.12%
[1]; MCF7, 72 hours, 1.54 μM
  Cell death #1 (%): −70.27%
  Cell death #2 (%): −54.19%
  Cell death #3 (%): −60.89%
  Cell death (%) MEAN: −61.78%
[1]; MCF7, 72 hours, 4.63 μM
  Cell death #1 (%): −53.85%
  Cell death #2 (%): −66.92%
  Cell death #3 (%): −69.26%
  Cell death (%) MEAN: −63.34%
[1]; MCF7, 72 hours, 13.89 μM
  Cell death #1 (%): −48.83%
  Cell death #2 (%): −38.44%
  Cell death #3 (%): −39.11%
  Cell death (%) MEAN: −42.13%
[1]; MCF7, 72 hours, 41.67 μM
  Cell death #1 (%): −22.36%
  Cell death #2 (%): −24.04%
  Cell death #3 (%): −22.70%
  Cell death (%) MEAN: −23.03%
[1]; MCF7, 72 hours, 125.00 μM
  Cell death #1 (%): 88.19%
  Cell death #2 (%): 90.54%
  Cell death #3 (%): 89.20%
  Cell death (%) MEAN: 89.31%
[2]
  cytotoxicity compared with the other test articles: less cytotoxic than dibenzyl butyl lactone derivative enantiomers A and B
[2]; human
  TP Concentration: 230.8 µM
  dTP Concentration: 21.8 µM
  similarity of dTP concentrations between all three compounds: ≤ 2 fold

## O=C1OCC(Cc2ccc3c(c2)OCO3)/C1=C\c1cccc(O)c1 (single isomer, unassigned) [Enantiomer A, 3-[(3,4-dimethoxyphenyl)cyclopentyl], 4-[(3-hydroxyphenol)methyl]oxolan-2-one]
[1]; MCF7, 24 hours, 0.06 μM
  Cell death #1 (%): −25.82%
  Cell death #2 (%): −37.36%
  Cell death #3 (%): −35.43%
  Cell death (%) MEAN: −32.87%
[1]; MCF7, 24 hours, 0.17 μM
  Cell death #1 (%): −27.36%
  Cell death #2 (%): −44.28%
  Cell death #3 (%): −55.05%
  Cell death (%) MEAN: −42.23%
[1]; MCF7, 24 hours, 0.51 μM
  Cell death #1 (%): −57.74%
  Cell death #2 (%): −18.51%
  Cell death #3 (%): −45.82%
  Cell death (%) MEAN: −40.69%
[1]; MCF7, 24 hours, 1.54 μM
  Cell death #1 (%): −48.89%
  Cell death #2 (%): −51.59%
  Cell death #3 (%): −43.51%
  Cell death (%) MEAN: −48.00%
[1]; MCF7, 24 hours, 4.63 μM
  Cell death #1 (%): −58.89%
  Cell death #2 (%): −57.74%
  Cell death #3 (%): −34.66%
  Cell death (%) MEAN: −50.43%
[1]; MCF7, 24 hours, 13.89 μM
  Cell death #1 (%): −61.20%
  Cell death #2 (%): −35.05%
  Cell death #3 (%): −25.05%
  Cell death (%) MEAN: −40.43%
[1]; MCF7, 24 hours, 41.67 μM
  Cell death #1 (%): −83.51%
  Cell death #2 (%): −78.89%
  Cell death #3 (%): −45.05%
  Cell death (%) MEAN: −69.15%
[1]; MCF7, 24 hours, 125.00 μM
  Cell death #1 (%): 98.41%
  Cell death #2 (%): 95.72%
  Cell death #3 (%): 100.72%
  Cell death (%) MEAN: 98.29%
[1]; MCF7, 72 hours, 0.06 μM
  Cell death #1 (%): −51.17%
  Cell death #2 (%): −29.40%
  Cell death #3 (%): −11.64%
  Cell death (%) MEAN: −30.74%
[1]; MCF7, 72 hours, 0.17 μM
  Cell death #1 (%): −56.87%
  Cell death #2 (%): −58.21%
  Cell death #3 (%): −50.17%
  Cell death (%) MEAN: −55.08%
[1]; MCF7, 72 hours, 0.51 μM
  Cell death #1 (%): −79.98%
  Cell death #2 (%): −51.84%
  Cell death #3 (%): −72.61%
  Cell death (%) MEAN: −68.15%
[1]; MCF7, 72 hours, 1.54 μM
  Cell death #1 (%): −57.87%
  Cell death #2 (%): −73.62%
  Cell death #3 (%): −58.88%
  Cell death (%) MEAN: −63.46%
[1]; MCF7, 72 hours, 4.63 μM
  Cell death #1 (%): −90.37%
  Cell death #2 (%): −113.15%
  Cell death #3 (%): −79.31%
  Cell death (%) MEAN: −94.28%
[1]; MCF7, 72 hours, 13.89 μM
  Cell death #1 (%): −43.13%
  Cell death #2 (%): −52.85%
  Cell death #3 (%): −46.15%
  Cell death (%) MEAN: −47.38%
[1]; MCF7, 72 hours, 41.67 μM
  Cell death #1 (%): 15.49%
  Cell death #2 (%): 4.10%
  Cell death #3 (%): 2.76%
  Cell death (%) MEAN: 7.45%
[1]; MCF7, 72 hours, 125.00 μM
  Cell death #1 (%): 99.92%
  Cell death #2 (%): 99.92%
  Cell death #3 (%): 99.58%
  Cell death (%) MEAN: 99.80%
[1]; MCF7, at higher concentrations, 24 hours and 72 hours post-treatment
  breast cancer cell death as compared to enterolactone: increased breast cancer cell death as compared to enterolactone
[2]; human
  TP Concentration: 34.8 µM
  TP concentration, fold lower than (+/−) enterolactone TP: 4-6 fold
  dTP Concentration: 21.4 µM
  dTP and TP concentrations compared with anti-cancer drugs tested in this assay: higher than >90% of the anti-cancer drugs
  fold difference between dTP and TP: ≤ 3 fold
  similarity of dTP concentrations between all three compounds: ≤ 2 fold
